The values below come from patent US11274100B2, “EP300/CREBBP inhibitor” (Daiichi Sankyo Company, Limited, priority 2017, dated 2022).

Each structure is given as a SMILES string.

One assay has as its system LK2 cells. Kind of assay: Cell growth inhibitory activity, LK2 cells (Test Example 3). It counts as cell-based. To be noted: Homo sapiens, LK-2, 72 h, cultured for 3 days, CellTiter-Glo. Here is the method:
(§1) [Test Example 3] Evaluation of Cell Growth Inhibitory Activity
(§2) As a culture medium for each cell, a 10% FBS supplemented RPMI 1640 medium (for LK2 cells and TE-8 cells derived from human esophageal cancer) was used. LK2 cells were purchased from Human Science Research Resources Bank, and TE-8 cells were purchased from Riken Cell Bank. The compound of each of Examples 1 to 108b was prepared by dilution with Freedom EVO 150 (Tecan Trading AG) (4-fold diluted, 10 stages, 10 mM to 38 nM). The resultant was added to respective wells of a 384-well plate in an amount of 40 nL/well using Echo 555 (Labcyte Inc.). The LK2 or TE-8 cells were seeded in the plate at 400 cells/40 μL/well (day 0), and were cultured for 3 days. On the day of addition of the compound (day 0) and 3 days after the addition of the compound (day 3), an ATP measurement reagent of CellTiter-Glo (registered trademark) 2.0 Assay (Promega Corporation, #G9242) was added to each well in an amount of 10 μL/well, and the amount of luminescence of each well was measured using EnVision. Based on the amount of luminescence (C0) on the day of the addition of the compound, and the amounts of luminescence of a compound non-addition group (C3) and a compound addition group (T3) obtained after the 3-day culture of the compound, a cell survival rate was calculated in accordance with the following expression: Cell survival rate (%)=(T3−C0)/(C3−C0)×100
(§3) A concentration (GI50 value) of each compound at which the growth of the TE-8 or LK-2 cells was inhibited by 50% was calculated by semilogarithmically plotting the cell survival rate at each concentration and the compound concentration.
(In general: ATP-based viability assays read luminescence as a measure of living cells.)

A further assay deals with TE-8 cells. Briefly: Cell growth inhibitory activity, TE-8 cells (Test Example 3). It counts as cell-based. To be noted: Homo sapiens, 72 h, cultured for 3 days, CellTiter-Glo. Here is the method:
as §1, §2, §3

A further assay deals with CREBBP (Homo sapiens, UniProt Q92793). Briefly: Histone acetyltransferase inhibitory activity against CREBBP (Test Example 1). It counts as biochemical. As to conditions: 125 ng/mL CREBBP, 2 μM Acetyl-CoA, 100 nM Histone H4(1-25)-GSGSK (Biotin), 28° C. for 1 hour. Here is the method: (§4) [Test Example 1] Evaluation of Histone
(§5) Acetyltransferase Inhibitory Activity against EP300 and CREBBP
(§6) 10 μL each of reaction solutions each containing a different concentration of the compound of each of Examples 1 to 108b (50 mM Tris-HCl (pH8.0), 0.1 mM EDTA, 1 mM dithiothreitol, 0.01% Tween-20, 0.01% Bovine serum albumin, 330 nM trichostatin A, 2 μM Acetyl-CoA (Sigma-Aldrich, #A2056), 100 nM Histone H4(1-25)-GSGSK (Biotin) (Anaspec, #65242-1), 1% dimethyl sulfoxide, 10 to 0.0006 μM of each compound, 50 ng/mL EP300 or 125 ng/mL CREBBP) was added to respective wells of a 384-well plate, and cultured at 28° C. for 1 hour. Thereafter, 5 μL of 30 μM Lys-CoA (Daiichi Sankyo Co., Ltd.) dissolved in LANCE detection buffer (Perkin Elmer Co., Ltd., #CR97-100) was added to each well. Furthermore, 5 μL of LANCE detection buffer containing 2 nM Eu-anti pan-Ac (Perkin Elmer Co., Ltd., #TRF0412) and 50 nM Sta-Ulight (Perkin Elmer Co., Ltd., #TRF0102) was added to each well, and the resultant was cultured at room temperature overnight. EnVision (Perkin Elmer Co., Ltd., Model 2104-0020) was used to measure ULight signals. […] EP300 and CREBBP were produced and purified by Daiichi Sankyo RD Novare Co., Ltd.

The subject of the next assay is H3K27Ac. Kind of assay: Intracellular H3K27Ac inhibitory activity in LK2 cells (Test Example 2). It counts as cell-based. To be noted: Homo sapiens, LK-2, cultured with compound for 3 hours, read-out: Test Example 2 H3K27Ac Inhibition (LK2) IC50. As for the experimental part:
[Test Example 2] Evaluation of Intracellular H3K27Ac Inhibitory Activity
LK2 cells derived from human squamous cell lung cancer were seeded in a 96 well plate at 40000 cells/100 μL/well, and were cultured overnight at 37° C. in 5% CO2. The LK2 cells were purchased from Human Science Research Resources Bank. […] The supernatant was discarded, 4% paraformaldehyde was added thereto at 100 μL/well, and the resultant was allowed to stand still at room temperature for 15 minutes. The 4% paraformaldehyde was discarded, and the resultant was washed with PBS-T. A quenching buffer (PBS-T containing 1% H2O2) was added thereto at of 100 μL/well, and the resultant was allowed to stand still at room temperature for 10 minutes. The resultant was washed with PBS-T, a blocking buffer (StartingBlocK T20 (TBS) Blocking Buffer (Thermo […], #37543)) was added thereto at 200 μL/well, and the resultant was allowed to stand still at room temperature for 1 hour. The supernatant was discarded, Acetyl-Histone H3 (Lys27) (D5E4) XP (registered trademark) Rabbit mAb (cell Signaling, #8173) diluted with a blocking buffer was added thereto at 50 μL/well, and the resultant was allowed to stand still at 4° C. overnight. The resultant was washed with PBS-T, Anti-Rabbit IgG-HRP (Cell Signaling, #7074S) diluted with a blocking buffer was added thereto at 50 μL/well, and the resultant was cultured at room temperature for 1 hour. The resultant was washed with PBS-T, SuperSignal (registered trademark) ELISA Pico Chemiluminescent Substrate (Thermo […], #37069) was added thereto at 50 μL/well, and a signal was measured using EnVision.

In the next assay the target is EP300 (Homo sapiens, UniProt Q09472). Kind of assay: Histone acetyltransferase inhibitory activity against EP300 (Test Example 1). The assay is classed as biochemical. To be noted: 50 ng/mL EP300, 2 μM Acetyl-CoA, 100 nM Histone H4(1-25)-GSGSK (Biotin), 28° C. for 1 hour. As for the experimental part:
as §4, §5, §6

EP300, sequence (Q09472 whole entry): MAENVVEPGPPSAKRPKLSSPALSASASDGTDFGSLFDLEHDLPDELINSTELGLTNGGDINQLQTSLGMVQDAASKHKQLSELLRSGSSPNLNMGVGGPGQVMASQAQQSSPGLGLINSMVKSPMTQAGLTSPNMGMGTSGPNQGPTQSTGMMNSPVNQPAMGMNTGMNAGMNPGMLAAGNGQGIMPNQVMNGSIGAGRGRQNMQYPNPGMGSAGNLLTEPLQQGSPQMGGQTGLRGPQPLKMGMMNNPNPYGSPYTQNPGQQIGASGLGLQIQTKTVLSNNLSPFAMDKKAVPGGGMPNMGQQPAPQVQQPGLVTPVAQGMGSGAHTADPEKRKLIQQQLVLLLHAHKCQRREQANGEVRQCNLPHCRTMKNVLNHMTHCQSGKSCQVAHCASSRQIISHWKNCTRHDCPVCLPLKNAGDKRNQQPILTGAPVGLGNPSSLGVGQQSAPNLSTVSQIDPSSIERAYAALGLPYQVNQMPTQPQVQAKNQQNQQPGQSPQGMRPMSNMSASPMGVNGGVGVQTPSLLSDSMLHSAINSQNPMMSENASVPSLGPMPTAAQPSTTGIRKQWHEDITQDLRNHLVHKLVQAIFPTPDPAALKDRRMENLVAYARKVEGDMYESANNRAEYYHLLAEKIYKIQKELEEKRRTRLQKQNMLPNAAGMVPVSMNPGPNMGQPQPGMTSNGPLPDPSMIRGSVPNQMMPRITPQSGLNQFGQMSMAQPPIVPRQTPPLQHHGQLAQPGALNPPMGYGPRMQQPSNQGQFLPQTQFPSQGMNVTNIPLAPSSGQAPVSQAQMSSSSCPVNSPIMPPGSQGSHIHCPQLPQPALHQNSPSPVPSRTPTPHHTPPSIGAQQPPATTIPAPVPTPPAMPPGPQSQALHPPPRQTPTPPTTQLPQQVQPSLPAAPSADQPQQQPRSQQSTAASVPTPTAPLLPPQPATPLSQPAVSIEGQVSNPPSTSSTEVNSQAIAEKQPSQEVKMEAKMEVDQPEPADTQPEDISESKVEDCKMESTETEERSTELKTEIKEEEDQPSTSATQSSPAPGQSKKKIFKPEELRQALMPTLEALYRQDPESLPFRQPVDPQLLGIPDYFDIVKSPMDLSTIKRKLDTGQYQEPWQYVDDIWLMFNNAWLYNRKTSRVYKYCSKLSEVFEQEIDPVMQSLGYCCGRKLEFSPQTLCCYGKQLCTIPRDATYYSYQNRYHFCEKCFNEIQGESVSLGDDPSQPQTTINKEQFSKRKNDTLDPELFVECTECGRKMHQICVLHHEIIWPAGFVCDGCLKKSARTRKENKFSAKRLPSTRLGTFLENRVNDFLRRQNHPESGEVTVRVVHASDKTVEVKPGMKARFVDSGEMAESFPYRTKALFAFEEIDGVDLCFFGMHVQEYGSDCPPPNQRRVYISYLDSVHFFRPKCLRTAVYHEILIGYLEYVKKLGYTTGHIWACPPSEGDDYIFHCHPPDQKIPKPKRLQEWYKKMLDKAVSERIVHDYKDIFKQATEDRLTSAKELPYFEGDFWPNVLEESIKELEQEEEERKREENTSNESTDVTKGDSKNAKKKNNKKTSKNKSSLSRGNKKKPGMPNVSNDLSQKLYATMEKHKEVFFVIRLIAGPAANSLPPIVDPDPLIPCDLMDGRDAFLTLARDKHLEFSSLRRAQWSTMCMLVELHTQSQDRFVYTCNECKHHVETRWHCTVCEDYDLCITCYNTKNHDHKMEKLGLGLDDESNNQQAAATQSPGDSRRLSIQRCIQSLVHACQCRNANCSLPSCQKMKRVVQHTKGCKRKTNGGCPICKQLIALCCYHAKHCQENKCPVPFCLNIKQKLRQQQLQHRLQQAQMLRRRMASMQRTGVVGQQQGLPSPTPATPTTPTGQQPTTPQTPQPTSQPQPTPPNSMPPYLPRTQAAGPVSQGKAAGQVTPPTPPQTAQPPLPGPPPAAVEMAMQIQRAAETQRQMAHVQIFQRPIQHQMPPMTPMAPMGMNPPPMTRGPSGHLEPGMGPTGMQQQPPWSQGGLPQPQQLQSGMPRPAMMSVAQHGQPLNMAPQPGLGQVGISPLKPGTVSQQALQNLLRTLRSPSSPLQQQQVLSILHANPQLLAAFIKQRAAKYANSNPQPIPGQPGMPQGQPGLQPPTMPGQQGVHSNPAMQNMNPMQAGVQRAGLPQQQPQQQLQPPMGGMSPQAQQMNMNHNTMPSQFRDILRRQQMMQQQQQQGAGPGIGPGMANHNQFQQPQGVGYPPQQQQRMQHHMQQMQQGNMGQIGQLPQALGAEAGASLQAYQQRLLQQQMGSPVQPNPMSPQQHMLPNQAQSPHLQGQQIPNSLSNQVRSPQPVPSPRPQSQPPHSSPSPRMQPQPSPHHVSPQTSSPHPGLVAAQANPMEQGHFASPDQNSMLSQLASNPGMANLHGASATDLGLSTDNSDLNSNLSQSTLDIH
CREBBP, sequence (Q92793 whole entry): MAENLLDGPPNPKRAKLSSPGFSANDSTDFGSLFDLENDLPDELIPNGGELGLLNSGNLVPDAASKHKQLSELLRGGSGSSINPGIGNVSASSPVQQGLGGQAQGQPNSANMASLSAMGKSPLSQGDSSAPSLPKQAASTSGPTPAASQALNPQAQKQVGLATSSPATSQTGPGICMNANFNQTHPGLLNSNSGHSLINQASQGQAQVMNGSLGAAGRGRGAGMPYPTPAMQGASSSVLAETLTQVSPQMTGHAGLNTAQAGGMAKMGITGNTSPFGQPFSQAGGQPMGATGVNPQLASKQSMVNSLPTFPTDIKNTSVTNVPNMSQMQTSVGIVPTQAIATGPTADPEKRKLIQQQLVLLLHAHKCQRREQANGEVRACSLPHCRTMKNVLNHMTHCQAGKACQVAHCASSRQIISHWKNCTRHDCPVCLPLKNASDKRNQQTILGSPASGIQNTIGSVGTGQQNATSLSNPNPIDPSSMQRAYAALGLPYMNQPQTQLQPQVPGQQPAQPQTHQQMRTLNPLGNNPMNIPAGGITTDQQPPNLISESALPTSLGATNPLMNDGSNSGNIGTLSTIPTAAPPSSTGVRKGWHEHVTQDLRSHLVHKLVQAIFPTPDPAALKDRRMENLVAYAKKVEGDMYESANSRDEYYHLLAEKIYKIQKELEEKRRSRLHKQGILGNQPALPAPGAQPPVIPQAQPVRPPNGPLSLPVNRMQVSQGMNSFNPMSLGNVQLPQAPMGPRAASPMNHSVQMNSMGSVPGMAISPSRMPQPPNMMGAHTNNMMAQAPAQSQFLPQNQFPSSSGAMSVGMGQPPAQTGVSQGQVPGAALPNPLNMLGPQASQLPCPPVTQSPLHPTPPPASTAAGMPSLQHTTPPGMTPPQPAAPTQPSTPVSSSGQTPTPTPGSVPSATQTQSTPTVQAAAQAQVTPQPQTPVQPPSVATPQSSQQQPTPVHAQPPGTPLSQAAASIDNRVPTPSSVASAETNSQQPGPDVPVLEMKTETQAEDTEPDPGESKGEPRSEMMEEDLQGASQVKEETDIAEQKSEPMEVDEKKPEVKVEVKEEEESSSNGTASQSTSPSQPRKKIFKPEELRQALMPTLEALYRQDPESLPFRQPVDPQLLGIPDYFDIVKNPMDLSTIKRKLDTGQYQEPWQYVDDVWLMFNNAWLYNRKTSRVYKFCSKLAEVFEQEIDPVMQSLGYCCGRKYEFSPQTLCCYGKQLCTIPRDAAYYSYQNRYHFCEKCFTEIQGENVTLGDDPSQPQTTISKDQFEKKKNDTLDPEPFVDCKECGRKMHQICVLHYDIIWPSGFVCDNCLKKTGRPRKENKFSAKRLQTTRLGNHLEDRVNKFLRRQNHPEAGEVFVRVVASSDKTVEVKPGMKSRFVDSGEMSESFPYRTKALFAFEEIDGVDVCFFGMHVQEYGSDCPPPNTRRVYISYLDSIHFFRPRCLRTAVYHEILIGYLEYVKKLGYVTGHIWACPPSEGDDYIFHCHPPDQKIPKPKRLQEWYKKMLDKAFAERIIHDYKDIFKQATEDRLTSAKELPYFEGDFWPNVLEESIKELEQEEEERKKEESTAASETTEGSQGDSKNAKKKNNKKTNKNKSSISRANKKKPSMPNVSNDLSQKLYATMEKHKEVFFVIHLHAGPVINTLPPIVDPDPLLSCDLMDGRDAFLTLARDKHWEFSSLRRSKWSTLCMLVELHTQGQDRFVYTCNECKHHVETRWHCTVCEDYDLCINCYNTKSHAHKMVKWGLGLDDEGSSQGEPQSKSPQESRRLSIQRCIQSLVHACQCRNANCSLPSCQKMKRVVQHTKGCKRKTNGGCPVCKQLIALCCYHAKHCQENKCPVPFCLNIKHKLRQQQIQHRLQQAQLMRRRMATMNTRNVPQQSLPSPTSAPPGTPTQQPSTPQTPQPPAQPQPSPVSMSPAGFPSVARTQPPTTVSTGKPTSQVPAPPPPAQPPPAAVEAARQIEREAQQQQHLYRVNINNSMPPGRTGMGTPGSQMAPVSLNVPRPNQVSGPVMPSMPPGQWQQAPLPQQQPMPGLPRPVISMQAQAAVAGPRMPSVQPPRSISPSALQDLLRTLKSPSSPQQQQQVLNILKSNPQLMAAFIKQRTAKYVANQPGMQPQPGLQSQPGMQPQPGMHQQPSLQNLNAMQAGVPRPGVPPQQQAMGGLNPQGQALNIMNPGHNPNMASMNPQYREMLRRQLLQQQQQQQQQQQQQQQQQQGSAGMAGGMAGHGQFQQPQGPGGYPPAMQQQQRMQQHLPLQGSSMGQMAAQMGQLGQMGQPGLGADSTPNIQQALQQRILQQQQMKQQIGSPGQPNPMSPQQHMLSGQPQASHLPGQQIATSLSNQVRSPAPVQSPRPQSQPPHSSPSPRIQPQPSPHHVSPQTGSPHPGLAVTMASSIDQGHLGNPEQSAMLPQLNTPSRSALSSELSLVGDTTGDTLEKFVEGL

The term GI50 denotes the concentration at which growth is held to half of that of the control. Read a low GI50 as more potent growth inhibition. Broadly, the IC50 is the concentration needed to halve the response being measured. Consider `COc1ccc(C2(C(=O)N3C[C@H](F)[C@@H](O)[C@@H]3C(=O)Nc3ccc4[nH]ncc4n3)CCC(F)(F)CC2)cc1` [Example 38], for which the 50% growth inhibitory concentration (GI50) in the assay on LK2 cells amounted to 0.117 µM; in the assay with TE-8 cells it was 0.176 µM. Moreover, the IC50 against CREBBP was 0.109 µM; in the assay with H3K27Ac, 0.038 µM; against EP300, 0.057 µM.
The matching figures for `COc1ccc(C2(C(=O)N3C[C@H](F)C[C@@H]3C(=O)Nc3ccc4[nH]ncc4n3)CCOCC2)cc1` [Example 45, (4R)-4-Fluoro-1-{[4-(4-methoxyphenyl)tetrahydro-2H-pyran-4-yl]carbonyl}-N-1H-pyrazolo[4,3-b]pyridin-5-yl-D-prolinamide]: 0.733 µM, 1.35 µM, 0.128 µM, 0.101 µM and 0.031 µM.
The matching figures for `COc1ccc(C2(C(=O)N(C)[C@H](C)C(=O)Nc3ccc4[nH]ncc4n3)CCCCC2)cc1` [Example 46]: 0.147 µM, 0.145 µM, 0.045 µM, 0.014 µM and 0.024 µM.
The matching figures for `COc1ccc(C(C)(C)C(=O)N2C[C@H](F)C[C@@H]2C(=O)Nc2ccc3[nH]ncc3n2)cc1` [Example 47]: 0.585 µM, 1.14 µM, 0.059 µM, 0.077 µM and 0.013 µM.
`O=C(Nc1ccc2[nH]ncc2n1)[C@H]1C[C@@H](F)CN1C(=O)C1(c2ccc(OCF)cc2)CCC(F)(F)CC1` [Example 48]: the GI50 worked out at 0.105 µM with LK2 cells and 0.135 µM in the assay on TE-8 cells. For the same compound, the concentration for half-maximal inhibition (IC50) came out at 0.034 µM against CREBBP, 0.025 µM with H3K27Ac and 0.014 µM against EP300.
On to `O=C(Nc1ccc2[nH]ncc2n1)[C@H]1C[C@@H](F)CN1C(=O)C1(c2ccc(OCF)cc2)CCCC1` [Example 49], for which the values for the GI50 in the assay on LK2 cells and in the assay on TE-8 cells were 0.075 µM and 0.0681 µM, respectively. For the same compound, the concentration for half-maximal inhibition (IC50) against CREBBP stood at 0.025 µM; in the assay on H3K27Ac it was 0.039 µM; on EP300, 0.013 µM.
The matching figures for `COc1ccc(C2(C(=O)N3C[C@H](F)C[C@@H]3C(=O)Nc3ccc4[nH]ccc4n3)CCCCC2)cc1` [Example 50]: 0.166 µM, 0.288 µM, 0.027 µM, 0.027 µM and 0.02 µM.
The matching figures for `COc1ccc(C2(C(=O)N3C[C@H](F)C[C@@H]3C(=O)Nc3ccc4[nH]ccc4n3)CCC(F)(F)CC2)cc1` [Example 51]: 0.351 µM, 0.916 µM, 0.054 µM, 0.05 µM and 0.041 µM.
The matching figures for `COc1ccc(C2(C(=O)N3C[C@H](F)C[C@@H]3C(=O)Nc3ccc4cc[nH]c4n3)CCCCC2)cc1` [Example 52]: 0.254 µM, 0.439 µM, 0.051 µM, 0.028 µM and 0.021 µM.
In the case of `COc1ccc(C2(C(=O)N3CCC[C@@H]3C(=O)Nc3cccc4[nH]ncc34)CCCCCC2)cc1` [Example 54], the GI50 came to 2.97 µM with LK2 cells and 4.48 µM in the assay on TE-8 cells. Besides, the IC50 on CREBBP was 0.201 µM; in the assay on H3K27Ac, 0.92 µM; on EP300, 0.126 µM.
The matching figures for `COc1ccc(C2(C(=O)N3C[C@H](F)C[C@@H]3C(=O)Nc3ccc4[nH]ncc4n3)CC(F)(F)C2)cc1` [Example 56, (4R)-1-{[3,3-Difluoro-1-(4-methoxyphenyl)cyclobutyl]carbonyl}-4-fluoro-N-1H-pyrazolo[4,3-b]pyridin-5-yl-D-prolinamide]: 0.0988 µM, 0.0883 µM, 0.064 µM, 0.02 µM and 0.024 µM.
As for `COc1ccc(C2(C(=O)N3C[C@H](F)C[C@@H]3C(=O)Nc3ccc4[nH]ncc4n3)CC(C)(C)C2)cc1` [Example 57], the results for the concentration for 50% growth inhibition (GI50) with LK2 cells and in the assay on TE-8 cells were 0.31 µM and 0.473 µM, respectively. Also, the IC50 against CREBBP turned out to be 0.076 µM; in the assay on H3K27Ac, 0.053 µM; at EP300 it was 0.048 µM.
The matching figures for `CC(C)(C(=O)N1C[C@H](F)C[C@@H]1C(=O)Nc1ccc2[nH]ncc2n1)c1ccc(OC(F)(F)F)cc1` [Example 58]: 0.699 µM, 1.28 µM, 0.075 µM, 0.173 µM and 0.06 µM.
The matching figures for `O=C(Nc1ccc2[nH]ncc2n1)[C@H]1C[C@@H](F)CN1C(=O)C1(c2ccc(C(=O)C(F)(F)F)cc2)CCCCC1` [Example 61, (4R)-4-Fluoro-N-1H-pyrazolo[4,3-b]pyridin-5-yl-1-({1-[4-(trifluoroacetyl)phenyl]cyclohexyl}carbonyl)-D-prolinamide]: 0.149 µM, 0.216 µM, 0.095 µM, 0.021 µM and 0.056 µM.
The matching figures for `COc1c(F)cc(C2(C(=O)N3C[C@H](F)C[C@@H]3C(=O)Nc3ccc4[nH]ncc4n3)CCC(F)(F)CC2)cc1F` [Example 62]: 0.489 µM, 0.88 µM, 0.087 µM, 0.142 µM and 0.076 µM.
Consider `COc1ccc(C2(C(=O)N3C[C@H](F)C[C@@H]3C(=O)Nc3ccc4[nH]ncc4n3)CCCCC2)cn1` [Example 63], for which the GI50 with LK2 cells came out at 0.086 µM; in the assay on TE-8 cells, 0.117 µM. Moreover, the IC50 against CREBBP is 0.043 µM; with H3K27Ac, 0.015 µM; at EP300 it was 0.034 µM.
The matching figures for `COc1ncc(C2(C(=O)N3C[C@H](F)C[C@@H]3C(=O)Nc3ccc4[nH]ncc4n3)CCCC2)cn1` [Example 64]: 0.643 µM, 1.27 µM, 0.121 µM, 0.188 µM and 0.056 µM.
The matching figures for `COc1ccc(C2(C(=O)N3CS(=O)(=O)C[C@@H]3C(=O)Nc3ccc4[nH]ccc4n3)CCCC2)cc1` [Example 65, (4S)-3-{[1-(4-Methoxyphenyl)cyclopentyl]carbonyl}-N-(1H-pyrrolo[3,2-b]pyridin-5-yl)-1,3-thiazolidine-4-carboxamide 1,1-dioxide]: 0.0792 µM, 0.151 µM, 0.037 µM, 0.009 µM and 0.018 µM.
